Test system: CN0375-F725-PDC KRAS spheroid viability
Test: Anticancer human tumor CN0375-F725-PDC patient-derived colon carcinoma cell line growth inhibition [KRAS2]
Settings: spheroids with HUVEC and MSC; for IC50: curve of first compound; for viability, T/C: stronger effect = lower value
In short: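 KRAS-mutant tumor cells were grown as spheroids with HUVEC endothelial cells and human MSCs as stroma. Targeted agents were tested alone and with KRAS pathway inhibitors. Doses started at or near clinical Cmax, or 10 microM, descending half-log.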

[1] = second compound 0.1 µM, first compound 0.0316 µM
[2] = second compound 0.1 µM, first compound 0.1 µM
[3] = second compound 0.1 µM, first compound 0.316 µM
[4] = second compound 0.1 µM, first compound 1 µM
[5] = second compound 0.1 µM, first compound 3.16 µM
[6] = second compound 0.1 µM, first compound 10 µM
[7] = second compound 0.316 µM, first compound 0.0316 µM
[8] = second compound 0.316 µM, first compound 0.1 µM
[9] = second compound 0.316 µM, first compound 0.316 µM
[10] = second compound 0.316 µM, first compound 1 µM
[11] = second compound 0.316 µM, first compound 3.16 µM
[12] = second compound 0.316 µM, first compound 10 µM
[13] = second compound 1 µM, first compound 0.0316 µM
[14] = second compound 1 µM, first compound 0.1 µM
[15] = second compound 1 µM, first compound 0.316 µM
[16] = second compound 1 µM, first compound 1 µM
[17] = second compound 1 µM, first compound 3.16 µM
[18] = second compound 1 µM, first compound 10 µM
[19] = second compound 3.16 µM, first compound 0.0316 µM
[20] = second compound 3.16 µM, first compound 0.1 µM
[21] = second compound 3.16 µM, first compound 0.316 µM
[22] = second compound 3.16 µM, first compound 1 µM
[23] = second compound 3.16 µM, first compound 3.16 µM
[24] = second compound 3.16 µM, first compound 10 µM
[25] = second compound 0.0316 µM, first compound 0.0316 µM
[26] = second compound 0.0316 µM, first compound 0.1 µM
[27] = second compound 0.0316 µM, first compound 0.316 µM
[28] = second compound 0.0316 µM, first compound 1 µM
[29] = second compound 0.0316 µM, first compound 3.16 µM
[30] = second compound 0.0316 µM, first compound 10 µM
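Also: spheroids exposed to agents for 7 days.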

SMILES | IC50 (second compound 0.1 µM) | IC50 (second compound 0.316 µM) | IC50 (second compound 1 µM) | IC50 (second compound 3.16 µM) | viability, T/C [1] | viability, T/C [2] | viability, T/C [3] | viability, T/C [4] | viability, T/C [7] | viability, T/C [8] | viability, T/C [9] | viability, T/C [10] | viability, T/C [13] | viability, T/C [14] | viability, T/C [15] | viability, T/C [16] | viability, T/C [19] | viability, T/C [20] | viability, T/C [21] | viability, T/C [22] | also measured
COc1cc2nccc(Oc3ccc(NC(=O)C4(C(=O)Nc5ccc(F)cc5)CC4)cc3)c2cc1OC + CNCc1ccccc1-c1csc(C(C)Nc2nc(C)nc3cc(OC)c(OC)cc23)c1 | 3040 nM | 1230 nM | < 31.6 nM | < 31.6 nM | 98.2% | 94.4% | 85.6% | 76.3% | 93% | 97.6% | 72.7% | 60.5% | 45.5% | 42.6% | 19.5% | 20.6% | 0.22% | 0.26% | 0.27% | 0.15% | IC50 (second compound 10 µM): < 31.6 nM; viability, T/C [5]: 44.4%; viability, T/C [6]: 53.7%; viability, T/C [11]: 23%; viability, T/C [12]: 11.3%; viability, T/C [17]: 2.02%; viability, T/C [18]: 1.05%; viability, T/C [23]: 0.15%; viability, T/C [24]: 0.11%; viability, T/C (second compound 10 µM, first compound 0.0316 µM): 0.14%; viability, T/C (second compound 10 µM, first compound 0.1 µM): 0.13%; viability, T/C (second compound 10 µM, first compound 0.316 µM): 0.14%; viability, T/C (second compound 10 µM, first compound 1 µM): 0.12%; viability, T/C (second compound 10 µM, first compound 3.16 µM): 0.1%; viability, T/C (second compound 10 µM, first compound 10 µM): 0.16%
CC1(C)CCC(CN2CCN(c3ccc(C(=O)NS(=O)(=O)c4ccc(NCC5CCOCC5)c([N+](=O)[O-])c4)c(Oc4cnc5[nH]ccc5c4)c3)CC2)=C(c2ccc(Cl)cc2)C1 + C=CC(=O)N1CCN(c2nc(OCC3CCCN3C)nc3c2CCN(c2cccc4cccc(C)c24)C3)CC1CC#N | 4630 nM | 2670 nM | 2010 nM | < 31.6 nM | 104% | 104% | 102% | 99% | 101% | 108% | 101% | 96.6% | 96.6% | 97.2% | 100% | 86.3% | 11% | 12% | 3.38% | 3.27% | IC50 (second compound 0.0316 µM): 3980 nM; viability, T/C [25]: 108%; viability, T/C [26]: 102%; viability, T/C [27]: 101%; viability, T/C [28]: 107%; viability, T/C [29]: 58.5%; viability, T/C [30]: 15.9%; viability, T/C [5]: 66.3%; viability, T/C [6]: 17%; viability, T/C [11]: 42%; viability, T/C [12]: 14.3%; viability, T/C [17]: 26.2%; viability, T/C [18]: 5.23%; viability, T/C [23]: 0.38%; viability, T/C [24]: 0.17%
CCN1CCN(Cc2ccc(Nc3ncc(F)c(-c4cc(F)c5nc(C)n(C(C)C)c5c4)n3)nc2)CC1 + C=CC(=O)N1CCN(c2nc(OCC3CCCN3C)nc3c2CCN(c2cccc4cccc(C)c24)C3)CC1CC#N | > 1000 nM | > 1000 nM | > 1000 nM | < 3.16 nM | 88.1% | 94.6% | 104% | 91.2% | 85.5% | 89.4% | 95.2% | 91.5% | 86.9% | 83.9% | 85.1% | 89.8% | 17.9% | 15.3% | 20.3% | 1.83% | IC50 (second compound 0.0316 µM): > 1000 nM; viability, T/C (second compound 0.0316 µM, first compound 0.00316 µM): 110%; viability, T/C (second compound 0.0316 µM, first compound 0.01 µM): 94.4%; viability, T/C [25]: 90.5%; viability, T/C [26]: 91.8%; viability, T/C [27]: 111%; viability, T/C [28]: 99.8%; viability, T/C (second compound 0.1 µM, first compound 0.00316 µM): 103%; viability, T/C (second compound 0.1 µM, first compound 0.01 µM): 96.8%; viability, T/C (second compound 0.316 µM, first compound 0.00316 µM): 104%; viability, T/C (second compound 0.316 µM, first compound 0.01 µM): 99.7%; viability, T/C (second compound 1 µM, first compound 0.00316 µM): 95.4%; viability, T/C (second compound 1 µM, first compound 0.01 µM): 99.6%; viability, T/C (second compound 3.16 µM, first compound 0.00316 µM): 34.7%; viability, T/C (second compound 3.16 µM, first compound 0.01 µM): 31.3%
COC(=O)c1ccc2c(C(=Nc3ccc(N(C)C(=O)CN4CCN(C)CC4)cc3)c3ccccc3)c(O)[nH]c2c1 + C=CC(=O)N1CCN(c2nc(OCC3CCCN3C)nc3c2CCN(c2cccc4cccc(C)c24)C3)CC1CC#N | 2800 nM | 2340 nM | 1480 nM | < 31.6 nM | 104% | 98.8% | 92.6% | 89.4% | 99.5% | 100% | 93.2% | 90.8% | 93.8% | 91.3% | 85.2% | 68.7% | 26.5% | 20.2% | 21.8% | 5.53% | IC50 (second compound 0.0316 µM): 2970 nM; viability, T/C [25]: 102%; viability, T/C [26]: 95.3%; viability, T/C [27]: 91.1%; viability, T/C [28]: 91.5%; viability, T/C [29]: 47.6%; viability, T/C [30]: 0.22%; viability, T/C [5]: 45.1%; viability, T/C [6]: 0.36%; viability, T/C [11]: 35.5%; viability, T/C [12]: 0.16%; viability, T/C [17]: 15.4%; viability, T/C [18]: 0.41%; viability, T/C [23]: 1.94%; viability, T/C [24]: 0.67%
